Experimental data as given in ChEMBL document CHEMBL4340552, “Identification of BMI1 promoter inhibitors from Streptomyces sp. IFM-11958” (Bioorg Med Chem, 2019).

Columns and labels:
DU-145 [1] = experiment: Cytotoxicity against human DU145 cells assessed as reduction in cell viability incubated for 24 hrs by FMCA method; type: functional, cell-based; details: DU-145, 24 h
DU-145 [2] = experiment: Down-regulation of c-Myc protein expression in human DU145 cells incubated for 24 hrs by Western blot analysis; type: functional, cell-based
[3] = Inhibition of BMI1 promoter in HEK293T cells incubated for 24 hrs by luciferase reporter gene assay; type: cell-based; details: Homo sapiens, HEK-293T
DU-145 [4] = experiment: Down-regulation of BMI1 mRNA expression in human DU145 cells incubated for 24 hrs by Quantitative RT-PCR analysis; type: functional, cell-based
DU-145 [5] = experiment: Down-regulation of BMI1 protein expression in human DU145 cells incubated for 24 hrs by Western blot analysis; type: functional, cell-based
DU-145 [6] = experiment: Up-regulation of p16Ink4a mRNA expression in human DU145 cells incubated for 24 hrs by Quantitative RT-PCR analysis; type: functional, cell-based
Huh-7 [7] = experiment: Inhibition of sphere formation in human HuH7 cells incubated for 72 hrs by sphere forming assay; type: functional, cell-based
Huh-7 [8] = experiment: Cytotoxicity against human HuH7 cells assessed as reduction in cell viability incubated for 24 hrs by FMCA method; type: functional, cell-based; details: Huh-7, 24 h
HEK293 = experiment: Cytotoxicity against HEK293 cells assessed as reduction in cell viability incubated for 24 hrs by FMCA method; type: cell-based; details: Homo sapiens, HEK293, 24 h

| IC50 [3] | SMILES | IC50 (DU-145 [1]) | inhibition (DU-145 [2]) | Activity (DU-145 [4]) | inhibition (DU-145 [5]) | Activity (DU-145 [6]) | inhibition (Huh-7 [7]) | IC50 (Huh-7 [8]) | IC50 (HEK293) |
| --- | --- | --- | --- | --- | --- | --- | --- | --- | --- |
| 22000 nM | O=C1CCC(=O)N(O)CCCCCNC(=O)CCC(=O)N(O)CCCCCNC(=O)CCC(=O)N(O)CCCCCN1 [NOCARDAMINE] | – | – | – | – | – | – | – | – |
| 447 nM | CC[C@@H]1[C@@H](C)O[C@@](O)([C@@H](C)[C@H](O)[C@H](C)[C@H]2OC(=O)/C=C/C=C/[C@H](C)[C@@H]([C@@H](C)[C@@H](O)[C@H](C)[C@@]3(O)C[C@@H](O[C@H]4C[C@H](O)[C@H](O)[C@H](C)O4)[C@H](CC)[C@@H](C)O3)OC(=O)/C(C)=C/C=C/[C@@H]2C)C[C@H]1O[C@H]1C[C@H](O)[C@H](O)[C@H](C)O1 | – | – | – | – | – | – | – | – |

| SMILES | IC50 [3] | IC50 (DU-145 [1]) | inhibition (DU-145 [2]) | Activity (DU-145 [4]) | inhibition (DU-145 [5]) | Activity (DU-145 [6]) | inhibition (Huh-7 [7]) | IC50 (Huh-7 [8]) | IC50 (HEK293) |
| --- | --- | --- | --- | --- | --- | --- | --- | --- | --- |
| CC[C@@H]1[C@@H](C)O[C@@](O)([C@@H](C)[C@H](O)[C@H](C)[C@H]2OC(=O)/C=C/C=C/[C@H](C)[C@@H]([C@@H](C)[C@@H](O)[C@H](C)[C@@]3(O)C[C@@H](O[C@H]4C[C@H](O)[C@H](O)[C@H](C)O4)[C@H](CC)[C@@H](C)O3)OC(=O)/C=C/C=C/[C@@H]2C)C[C@H]1O[C@H]1C[C@H](O)[C@H](O)[C@H](C)O1 | 30 nM | 31 nM | Dose-dependent effect | Dose-dependent effect | Dose-dependent effect | Dose-dependent effect | Dose-dependent effect | 4.2 nM | 200 nM |
